Measurements as given in ChEMBL document CHEMBL1144115, “Antibacterial diterpenoid acids from Azorella compacta” (1999).
Active and inactive are the calls of the source. The rule behind the calls is not given here. Where a SMILES comes first, the peptide text is derived from it. Bridges are numbered along the chain shown (N, C = ends). [ ]: non-standard residue; d: D form. The star is where a group is joined. Ileψ(thiazoline)Cys = CC[C@H](C)[C@H](N)C1=N[C@H](C(=O)*)CS1; dOrn = NCCC[C@@H](N)C(=O)O

What was measured:
[1] = tested on: Staphylococcus aureus; experiment: Antibacterial activity against methicillin-susceptible Staphylococcus aureus at 200 ug after 18 hrs by agar diffusion test; type: functional; conditions: for zone of inhibition at 200 µg/disc: read-out: IZ
[2] = tested on: Staphylococcus aureus; experiment: Antibacterial activity against methicillin-resistant Staphylococcus aureus at 200 ug after 18 hrs by agar diffusion test; type: functional; conditions: for zone of inhibition at 200 µg/disc: read-out: IZ
[3] = tested on: Enterococcus faecium; experiment: Antibacterial activity against vancomycin-resistant Enterococcus faecium at 200 ug after 18 hrs by agar diffusion test; type: functional; conditions: for zone of inhibition at 200 µg/disc: read-out: IZ
[4] = tested on: Escherichia coli; experiment: Antibacterial activity against Escherichia coli BAS849 mutant at 200 ug after 18 hrs by agar diffusion test; type: functional; conditions: for zone of inhibition at 200 µg/disc: read-out: IZ
[5] = tested on: Candida albicans; experiment: Antimicrobial activity against Candida albicans at 200 ug after 18 hrs by agar diffusion test; type: functional, organism-based
[6] = tested on: Enterococcus faecium; experiment: Antibacterial activity against vancomycin-resistant Enterococcus faecium at 10 ug after 18 hrs by agar diffusion test; type: functional; conditions: read-out: IZ
[7] = tested on: Staphylococcus aureus; experiment: Antibacterial activity against methicillin-susceptible Staphylococcus aureus at 30 ug after 18 hrs by agar diffusion test; type: functional; conditions: read-out: IZ
[8] = tested on: Staphylococcus aureus; experiment: Antibacterial activity against methicillin-resistant Staphylococcus aureus at 30 ug after 18 hrs by agar diffusion test; type: functional; conditions: read-out: IZ
[9] = tested on: Escherichia coli; experiment: Antibacterial activity against Escherichia coli BAS849 mutant at 30 ug after 18 hrs by agar diffusion test; type: functional; conditions: read-out: IZ

SMILES: CC1=CC[C@]2(C)CC[C@]3(C(=O)O)[C@@H](C(C)C)CC[C@H]3[C@@H]2C=C1
- Activity [1]: inactive
- Activity [2]: inactive
- Activity [3]: inactive
- Activity [4]: inactive
- Activity [5]: inactive

SMILES: CC(C)[C@H]1CC[C@H]2[C@@H]3C=C[C@](C)(O)CC[C@]3(C)CC[C@]12C(=O)O
- Activity [1]: inactive
- Activity [2]: inactive
- Activity [3]: inactive
- Activity [4]: inactive
- Activity [5]: inactive

SMILES: CC1=CC(=O)[C@H]2[C@@H]3CC[C@H](C(C)C)[C@@]3(C(=O)O)CC[C@@]2(C)C=C1
- zone of inhibition at 200 µg/disc [1]: 8 mm
- zone of inhibition at 200 µg/disc [2]: 8 mm
- zone of inhibition at 200 µg/disc [3]: 8 mm
- zone of inhibition at 200 µg/disc [4]: 8 mm
- Activity [5]: inactive

SMILES: CC1=CC(=O)[C@H]2[C@@H]3CC[C@H](C(C)C)[C@@]3(C(=O)O)CC[C@@]2(C)CC1=O
- zone of inhibition at 200 µg/disc [1]: 8 mm
- zone of inhibition at 200 µg/disc [2]: 8 mm
- zone of inhibition at 200 µg/disc [3]: 8 mm
- zone of inhibition at 200 µg/disc [4]: 8 mm
- Activity [5]: inactive

SMILES: CC[C@H](C)[C@H](N)C1=N[C@H](C(=O)N[C@@H](CC(C)C)C(=O)N[C@H](CCC(=O)O)C(=O)N[C@H](C(=O)N[C@H]2CCCCNC(=O)[C@H](CC(N)=O)NC(=O)[C@@H](CC(=O)O)NC(=O)[C@H](Cc3cnc[nH]3)NC(=O)[C@@H](Cc3ccccc3)NC(=O)[C@H]([C@@H](C)CC)NC(=O)[C@@H](CCCN)NC2=O)[C@@H](C)CC)CS1 [BACITRACIN] ({Ileψ(thiazoline)Cys}-L[dE]IK[dOrn]I[dF]H[dD]N; lactam 4-C)
- zone of inhibition at 10 µg/disc [6]: 16 mm

SMILES: CN[C@H](CC(C)C)C(=O)N[C@H]1C(=O)N[C@@H](CC(N)=O)C(=O)N[C@H]2C(=O)N[C@H]3C(=O)N[C@H](C(=O)N[C@H](C(=O)O)c4cc(O)cc(O)c4-c4cc3ccc4O)[C@H](O)c3ccc(c(Cl)c3)Oc3cc2cc(c3O[C@@H]2O[C@H](CO)[C@@H](O)[C@H](O)[C@H]2O[C@H]2C[C@](C)(N)[C@H](O)[C@H](C)O2)Oc2ccc(cc2Cl)[C@H]1O [VANCOMYCIN]
- zone of inhibition at 30 µg/disc [7]: 16 mm
- zone of inhibition at 30 µg/disc [8]: 16 mm

SMILES: CO[C@@]1(NC(=O)Cc2cccs2)C(=O)N2C(C(=O)O)=C(COC(N)=O)CS[C@@H]21 [CEFOXITIN]
- zone of inhibition at 30 µg/disc [9]: 16 mm
